One assay addresses T1, recombinant human DHODH (Homo sapiens, UniProt Q02127).
T1 construct: DHODH, 31-395aa, Human, His tag, E. coli, ATGP1615; His tag; purchased ATGen Co. Ltd. ATGP1615; host or cells: E. coli
Kind of assay: DHODH enzyme reaction inhibition test (DCIP-coupled assay). Type of assay: biochemical. As to conditions: recombinant human DHODH 0.175 μg/mL, DCIP absorbance 600 nm, 50 minutes, pH 8.0; read-out: Enzyme reaction inhibitory effect (IC50). The procedure:
The DHODH enzyme assay was carried out with reference to “Benjamin Bader, Wolfgang Knecht, Markus Fries, and Monika Loffler, Expression, Purification, and Characterization of Histidine-Tagged Rat and Human Flavoenzyme Dihydroorotate Dehydrogenase, Protein Expression and Purification, 1998, 13, 414-422.”
The DHODH activity was evaluated using an enzyme assay system that is coupled with an assay in which a blue coloring agent 2,6-dichlorophenolindophenol (DCIP, available from MP Biomedicals, LLC, MP150118) is quenched. Purified recombinant human DHODH (DHODH, 31-395aa, Human, His tag, E. coli, ATGP1615) was purchased from ATGen Co. Ltd. The enzyme assay was carried out in a 384-well plate using a buffer solution containing 100 mmol/L Hepes (available from Dojindo Laboratories, 342-01375), 400 mmol/L NaCl (available from FUJIFILM Wako Pure Chemical Corporation, 191-01665), 10% Glycerol (available from FUJIFILM Wako Pure Chemical Corporation, 075-00616), 0.05% Triton X-100 (available from Sigma-Aldrich Co., LLC, T8787-100ML), 0.2 mmol/L Ubiquinone-10 (available from FUJIFILM Wako Pure Chemical Corporation, 216-00761), 0.1 mmol/L DHO (L-dihydroorotic acid, available from Sigma-Aldrich Co., LLC, D7128), 0.5% DMSO (dimethylsulfoxide, available from FUJIFILM Wako Pure Chemical Corporation, 047-29353), 0.175 μg/mL DHODH, and 0.12 mmol/L DCIP and having a pH adjusted to 8.0 by adding 5 mol/L potassium hydroxide (available from FUJIFILM Wako Pure Chemical Corporation, 168-21815). A test compound with a predetermined concentration was added using Biomek NX (available from Beckman Coulter Inc.), and the enzyme reaction was started by adding the substrate. The enzyme activity was assessed by measuring the decrease in DCIP absorbance (600 nm) for 50 minutes using an EnVision plate-reading spectrophotometer (available from PerkinElmer, Inc.).
The enzyme reaction inhibition rate at each test compound concentration was determined, and the 50% enzyme reaction inhibition concentration [IC50 (nmol/L)] was calculated using XLfit. Enzyme reaction inhibition rate (%)=(amount of luminescence in test compound-added well)/(amount of luminescence in DMSO-added well)×100
The abbreviations in the table have the following meanings. • A: IC50 value<10 nmol/L • B: 10 nmol/L≤IC50 value<100 nmol/L • C: 100 nmol/L≤IC50 value

In assay [1] the test system is human myeloid leukemia cell line HL60. Kind of assay: Cell growth test, HL60 (CellTiter-Glo). Type of assay: cell-based. As to conditions: HL-60, 72 h, HL60 cells, 3 days, CellTiter-Glo luminescence, read-out: Cell growth inhibitory effect (GI50). The procedure:
The cell growth test was carried out using the human myeloid leukemia cell line HL60 (available from ATCC, CRL-240). As a culture medium of HL60 cells, RPMI 1640 (available from FUJIFILM Wako Pure Chemical Corporation, 189-02025) supplemented with 10% fetal bovine serum (available from Thermo Fisher Scientific, Inc., 10437-028), and 1% penicillin-streptomycin (10,000 U/mL, available from Thermo Fisher Scientific, Inc., 15140-122) was used. HL60 cells were seeded on a 384-well plate (available from Corning Inc., 4588) at a cell density of 1×10^3 cells/20 μL/well. After culturing overnight, 5 μL of the test compound having a predetermined concentration was added, and 3 days later, 25 μL of CellTiter-Glo (registered trademark) Luminescent Cell Viability Assay (available from Promega Corporation, G7573) was added, and then the amount of luminescence was measured using an EnVision plate reader (available from PerkinElmer, Inc.). Since the amount of luminescence is proportional to the intracellular concentration of adenosine triphosphate (ATP), the amount of luminescence was used as an indicator of the number of viable cells. The growth inhibitory concentration for each test compound concentration was calculated by the following expression.
The growth inhibition rate at each test compound concentration was determined, and the 50% growth inhibitory concentration [GI50 (nmol/L)] was calculated using XLfit. Growth inhibition rate (%)=(amount of luminescence in test compound-added well)/(amount of luminescence in DMSO-added well)×100
The abbreviations in the table have the following meanings. • A: GI50 value<100 nmol/L • B: 100 nmol/L≤GI50 value<1,000 nmol/L • C: 1,000 nmol/L≤GI50 value
A general note: In ATP-based viability assays light output follows the ATP content of the culture.

Where only a bound is given, the exact number is not on record here.

We go through 31 compounds from patent US12637435B2, “Nitrogen-containing heterocyclic compound or salt thereof, use thereof, and intermediate thereof” (FUJIFILM Corporation, priority 2020, dated 2026).

Usually IC50 stands for the concentration that inhibits the measured activity by half. The term GI50 denotes the concentration that inhibits growth by half.

T1 sequence (Q02127 31-395): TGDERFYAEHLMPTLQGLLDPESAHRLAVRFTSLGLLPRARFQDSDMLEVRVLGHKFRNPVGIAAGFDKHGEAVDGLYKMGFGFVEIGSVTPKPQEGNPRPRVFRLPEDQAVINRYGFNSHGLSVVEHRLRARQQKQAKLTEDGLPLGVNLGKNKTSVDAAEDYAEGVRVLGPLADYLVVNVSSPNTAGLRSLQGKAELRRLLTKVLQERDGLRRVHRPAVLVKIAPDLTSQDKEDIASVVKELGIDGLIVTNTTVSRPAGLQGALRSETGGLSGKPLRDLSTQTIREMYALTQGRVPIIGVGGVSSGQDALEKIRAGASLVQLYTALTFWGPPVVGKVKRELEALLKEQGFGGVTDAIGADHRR

Regarding `C[C@H](Oc1c(Nc2ccc(C3CC3)cc2C(=O)O)cncc1C1=CCOCC1)C(F)(F)F` [Example 2-6], the IC50 on recombinant human DHODH was less than 10 nM. Moreover, in assay [1], the GI50 is less than 100 nM.
The like results for `CC(O)c1nc(C2CC2)cnc1Nc1cccc(C2=CCOCC2)c1OCC(F)(F)F` (centres unmarked) [Example 1-11, 1-(6-cyclopropyl-3-((3-(3,6-dihydro-2-H-pyran-4-yl)-2-(2,2,2-trifluoroethoxy)phenyl)amino)pyrazin-2-yl)ethan-1-ol] were, in that order, no less than 100 nM and no less than 1000 nM.
The like results for `CNNC(=O)c1nc(C2CC2)cnc1Nc1cccc(C2=CCOCC2)c1OCC(F)(F)F` [Example 1-12, 6-cyclopropyl-3-((3-(3,6-dihydro-2H-pyran-4-yl)-2-(2,2,2-trifluoroethoxy)phenyl)amino)-N′-methylpyrazine-2-carbohydrazide] were, in that order, 10 to 100 nM and 100 to 1000 nM.
On the same counts, the results for `NNC(=O)c1nc(C2CC2)cnc1Nc1cccc(C2=CCOCC2)c1OCC(F)(F)F` [Example 1-8, 6-cyclopropyl-3-((3-(3,6-dihydro-2H-pyran-4-yl)-2-(2,2,2-trifluoroethoxy)phenyl)amino)pyrazine-2-carbohydrazide] are 10 to 100 nM and 100 to 1000 nM.
For the compound `CCOc1c(C2=CCOCC2)ccc(F)c1Nc1ncc(C2CC2)cc1C(=O)NS(C)(=O)=O` [Example 3-59], the IC50 on recombinant human DHODH fell in the range of 10 to 100 nM. Further, the GI50 in assay [1] was no less than 1000 nM.
The like results for `Cc1cc(C#N)ccc1-c1cccc(Nc2ncc(C3CC3)nc2C(=O)O)c1OCC(F)(F)F` [Example 1-5, 3-((4′-cyano-2′-methyl-2-(2,2,2-trifluoroethoxy)-[1,1′-biphenyl]-3-yl)amino)-6-cyclopropylpyrazine-2-carboxylic acid] were, in that order, less than 10 nM and less than 100 nM.
In the case of `CS(=O)(=O)NC(=O)c1cc(C2CC2)cnc1Nc1cc(F)cc(C2CCOCC2)c1OCC(F)(F)F` [Example 3-42], the concentration for half-maximal inhibition (IC50) at recombinant human DHODH was less than 10 nM. For the same compound, in assay [1], the GI50 is less than 100 nM.
Regarding `C[C@H](Oc1c(Nc2ncc(C3CC3)nc2C(=O)NS(C)(=O)=O)cccc1C1=CCOCC1)C(F)(F)F` [Example 3-32], the IC50 at recombinant human DHODH was less than 10 nM. Besides, the GI50 in assay [1] was less than 100 nM.
Consider `N#CNCc1nc(C2CC2)cnc1Nc1cccc(C2=CCOCC2)c1OCC(F)(F)F` [Example 1-16, N-((6-cyclopropyl-3-((3-(3,6-dihydro-2H-pyran-4-yl)-2-(2,2,2-trifluoroethoxy)phenyl)amino)pyrazin-2-yl)methyl)cyanamide], for which, on recombinant human DHODH, the IC50 was in the range of 10 to 100 nM. In addition, the GI50 in assay [1] lay within 100 to 1000 nM.
On the same counts, the results for `CCS(=O)(=O)NC(=O)c1nc(C2CC2)cnc1Nc1cccc(C2=CCOCC2)c1OCC(F)(F)F` [Example 3-17] are 10 to 100 nM and no less than 1000 nM.
On the same counts, the results for `CC(C)c1cnc(Nc2cccc(C3=CCOCC3)c2OCC(F)(F)F)c(C(=O)NS(C)(=O)=O)n1` [Example 3-65] are less than 10 nM and 100 to 1000 nM.
The like results for `C[C@H](Oc1c(Nc2ccc(C3CC3)cc2C(=O)NS(C)(=O)=O)cncc1C1=CCOCC1)C(F)(F)F` [Example 3-25] were, in that order, 10 to 100 nM and 100 to 1000 nM.
As to `CS(=O)(=O)NC(=O)c1nc(C2CC2)cnc1Nc1cccc(-c2cccc(C#N)c2)c1OCC(F)(F)F` [Example 3-45], the IC50 on recombinant human DHODH was less than 10 nM. For the same compound, in assay [1], the GI50 is less than 100 nM.
On the same counts, the results for `O=c1[nH]nc(-c2nc(C3CC3)cnc2Nc2cccc(C3=CCOCC3)c2OCC(F)(F)F)o1` [Example 1-9, 5-(6-cyclopropyl-3-((3-(3,6-dihydro-2H-pyran-4-yl)-2-(2,2,2-trifluoroethoxy)phenyl)amino)pyrazin-2-yl)-1,3,4-oxadiazol-2(3H)-one] are 10 to 100 nM and 100 to 1000 nM.
On the same counts, the results for `FC(F)(F)COc1c(Nc2ncc(C3CC3)nc2-c2nnn[nH]2)cccc1C1=CCOCC1` [Example 1-6] are less than 10 nM and less than 100 nM.
The like results for `NC(=O)c1nc(C2CC2)cnc1Nc1cccc(C2=CCOCC2)c1OCC(F)(F)F` [Example 1-1, 6-cyclopropyl-3-((3-(3,6-dihydro-2H-pyran-4-yl)-2-(2,2,2-trifluoroethoxy)phenyl)amino)pyrazine-2-carboxamide] were, in that order, 10 to 100 nM and less than 100 nM.
`C[C@H](Oc1c(Nc2ncc(C3CC3)nc2C(=O)NC#N)cccc1C1CCOCC1)C(F)(F)F` [Example 3-14]: the IC50 on recombinant human DHODH was less than 10 nM. Moreover, the GI50 in assay [1] was less than 100 nM.
The like results for `CONC(=O)c1nc(C2CC2)cnc1Nc1cccc(C2CCOCC2)c1O[C@@H](C)C(F)(F)F` [Example 3-12] were, in that order, 10 to 100 nM and 100 to 1000 nM.
`N#CNC(=O)c1cc(C2CC2)cnc1Nc1cccc(-c2ccc(C#N)cc2)c1OCC(F)(F)F` [Example 3-39]: the IC50 at recombinant human DHODH was less than 10 nM. In assay [1], the GI50 is less than 100 nM.
On the same counts, the results for `CONC(=O)c1nc(C2CC2)cnc1Nc1cccc(C2=CCOCC2)c1OCC(F)(F)F` [Example 3-5] are less than 10 nM and less than 100 nM.
The like results for `O=C(O)c1nc(C2CC2)cnc1Nc1cccc(-c2ccc(F)cc2)c1OCC(F)(F)F` [Example 2-13] were, in that order, less than 10 nM and less than 100 nM.
`O=C(NS(=O)(=O)C1CC1)c1nc(C2CC2)cnc1Nc1cccc(C2=CCOCC2)c1OCC(F)(F)F` [Example 3-21]: the IC50 at recombinant human DHODH is 10 to 100 nM. For the same compound, the GI50 in assay [1] was no less than 1000 nM.
The like results for `C[C@H](Oc1c(Nc2ncc(C3CC3)nc2C(=O)NS(N)(=O)=O)cccc1C1CCOCC1)C(F)(F)F` [Example 3-7] were, in that order, less than 10 nM and 100 to 1000 nM.
On the same counts, the results for `N#Cc1ccc(-c2cccc(Nc3ncc(C4CC4)nc3C(=O)O)c2OC(F)F)cc1` [Example 2-11] are less than 10 nM and 100 to 1000 nM.
As for `COS(=O)(=O)NC(=O)c1nc(C2CC2)cnc1Nc1cccc(C2=CCOCC2)c1OCC(F)(F)F` [Example 3-19], the IC50 on recombinant human DHODH was in the range of 10 to 100 nM. The GI50 in assay [1] is 100 to 1000 nM.
In the case of `N#Cc1ccc(-c2cc(F)cc(Nc3ncc(C4CC4)nc3C(=O)O)c2OC(F)F)cc1` [Example 2-12], the IC50 at recombinant human DHODH lay in the range of 10 to 100 nM. Also, the GI50 in assay [1] was in the range of 100 to 1000 nM.
In the case of `O=C(O)c1cc(C2CC2)cnc1Nc1cc(F)cc(C2CCOCC2)c1OCC(F)(F)F` [Example 2-8], the IC50 on recombinant human DHODH is less than 10 nM. Also, in assay [1], the GI50 was less than 100 nM.
On the same counts, the results for `CCc1cnc(Nc2cccc(C3=CCOCC3)c2OCC(F)(F)F)c(C(=O)NS(C)(=O)=O)n1` [Example 3-66] are less than 10 nM and 100 to 1000 nM.
The like results for `Cc1cnc(Nc2cccc(C3=CCOCC3)c2OCC(F)(F)F)c(C(=O)NS(C)(=O)=O)n1` [Example 3-67] were, in that order, 10 to 100 nM and 100 to 1000 nM.
The like results for `O=C(O)c1cc(C2CC2)cnc1Nc1cccc(C2=CCOCC2)c1OCC(F)(F)F` [Example 2-5] were, in that order, less than 10 nM and less than 100 nM.
Consider `C[C@H](Oc1c(Nc2ccc(C3CC3)cc2C(=O)NS(C)(=O)=O)ccnc1C1=CCOCC1)C(F)(F)F` [Example 3-64], for which, on recombinant human DHODH, the IC50 lay in the range of 10 to 100 nM. Moreover, in assay [1], the GI50 lay within 100 to 1000 nM.
